# Where no end group is shown, it is not given here.
# Columns and labels:
# [1] = test system: normal human keratinocytes; assay: Synthesis of 46-47 KD keratin by human keratinocytes in primary culture; type: cell-based; details: compared with a control
# Method: (§1) Culture of normal human keratinocytes
# (§2) The epidermis is then dissociated under gentle mechanical action, or enzymically, in order to obtain the individual cells. Only the basal cells are capable of multiplying in vitro.
# (§3) The culture is carried out at 37° C. in a controlled moist atmosphere ([…] --5% CO2).
# (§4) In monolayer culture, the calcium concentration is between 0.05 and 0.1 mM. […] The synthesis of the keratinocytes is maintained. The intercellular spaces are wide: cell connections are maintained by microvillosities and not by tight junctions. While the tonofilaments of the perinuclear space can be seen, they are still not attached to the anchoring plaques.
# (§5) Stratification can be induced by increasing the final calcium concentration in the culture medium to 1.2 mM. The formation of desmosomes then appears after 2 hours.
# (§6) I ETF derivative No. IX, which has been lyophilized
# in Dextran (40 g/l) and which is at a concen-
# tration of 10^-6 M in the final culture medium.
# II Crist. SIGMA thymopoietin - at a concentration of
# 10^-6 M in the final culture medium.
# (§7) Human keratinocytes are cultured as described by Henning et al. (1983) or Fuchs et al. (1981). Air/liquid cultures are also carried out using the following methodology.
# The cell markers which are selected are the low-molecular-weight 46/47 KD keratins, which are specific for the growth and cell differentiation of the germinative cells.
# (§8) Indirect fluorescent labeling by the sandwich technique--48 hours after adding calcium to the culture medium (stratification).
# rat antihuman 46-47 KD keratin antibody
# FITC-labeled mouse antirat Ig G2 antibody.
# (§9) Use of immunofluorescence, with graphic recording, for measuring cell markers.
# (§10) Spectrofluorometric assays
# (§11) "Perkin Elmer LS-50 B spectrofluorimeter".
# (§12) on cell homogenate supernatants.
# (§13) LOWRY technique using a Perkin Elmer UV spectrophotometer (cell homogenate supernatants).
# (§14) The fluorescence intensity of the cells treated with ETF No. IX is assessed in comparison with the fluorescence intensity of the controls.
# [2] = test system: normal human keratinocytes; assay: Synthesis of keratohyalin (filaggrin) by human keratinocytes in primary culture; type: cell-based; details: for Stimulation % (keratohyalin synthesis): compared with a control; for Keratin/protein mean (keratohyalin synthesis, Table III): proteins expressed in micrograms/ml
# Method: as §1, §2, §3, §4, §5, §6
# in Dextran (40 g/l) and which is at a concen- […]
# II Crist. SIGMA thymopoietin - at a concentration of […]
# as §7
# The filaggrins are markers of keratohyalin.
# as §8
# human antikeratohyalin (filaggrin) antibody
# FITC-labeled goat antihuman Ig G antibody.
# as §9, §10, §11, §12, §13, §14
# [3] = test system: Thy 1.2+ thymocytes of the epidermis; assay: Thy 1.2+ epidermal cell density after topical application to mouse ear (immunofluorescence); type: in vivo, C57-BL/6 mice; details: for Number of Thy 1.2+ cells per mm^2 of epidermis, batch 1 / Number of Thy 1.2+ cells per mm^2 of epidermis, batch 2 / Number of Thy 1.2+ cells per mm^2 of epidermis, batch 3 / Number of Thy 1.2+ cells per mm^2 of epidermis, batch 4 / Number of Thy 1.2+ cells per mm^2 of epidermis, Mean: C 57 BL/6 mice; for Number of Thy 1.2+ cells per mm^2 of epidermis, Mean: 4 batches; for Thy 1.2+ cells % T: relative to PG controls
# Method: (§15) I--Experimental Samples--Code: ETF
# (§16) In solution in propylene glycol at a concentration of 10^-5 M/ml
# (§17) 5 to 7-week-old male C 57-BL/6 mice, which are divided into groups of 4 per cage, and which have free access to water and food and which are subjected to a photoperiod of 12 h of light per 24 hours, are given a topical application of the peptide in propylene glycol (50 μl vol) on the dorsal surface of the ear daily for 5 consecutive days.
# (§18) The animals are sacrificed on day 6. The ears are removed, with the dorsal and ventral surfaces being separated.
# (§19) The tissues of the dorsal surface are immersed in Na EDTA (0.020 M) at 37° C. for 2 h.
# (§20) After incubation, the epidermis is removed in the form of an intact sheet, fixed with acetone and rehydrated in PBS (phosphate buffer).
# (§21) The Thy 1-2+ and Ia+ EDC (epidermal dendritic cells) are identified by indirect immunofluorescence double labeling.
# (§22) In the case of each epidermal sheet, the number of cells per mm^2 is determined using the peripheral regions of the same surface.
# The Thy 1.2+ EDC were identified by indirect immunofluorescence double labeling. The epidermal sheets were fixed with acetone and then rehydrated in PBS.
# The tissues were labeled simultaneously, at 4° C. for 16 h, with mouse anti-Thy 1.2+ antibody which was diluted 1:100. The tissue samples were washed three times in PBS for 60 min and then incubated, at 37° C. for 60 min, either with goat antimouse antibody which was coupled to rhodamine and diluted 1:20, or with goat antirabbit antibody which was coupled to fluorescein (fluorescine and diluted 1:20 in PBS. The tissues were then washed in PBS before being mounted as previously described.
# (§23) In the case of each epidermal sheet, the number of Ia+ Langerhans cells or Thy 1.2+ EDCs per square millimeter was determined by means of immunofluorescence, using a confocal Zeiss microscope which was equipped for this purpose, in four peripheral areas of the same surface. At least four animals were studied in each of the groups. The density of Ia+ Langerhans cells and Thy 1.2+ EDCs is shown for each measurement.
# Ia+ Langerhans cells = assay: Ia+ Langerhans cell density after topical application to mouse ear; type: in vivo, C57-BL/6 mice; details: for Number of Ia+ cells per mm^2 of epidermis, batch 1 / Number of Ia+ cells per mm^2 of epidermis, batch 2 / Number of Ia+ cells per mm^2 of epidermis, batch 3 / Number of Ia+ cells per mm^2 of epidermis, batch 4 / Number of Ia+ cells per mm^2 of epidermis, Mean: C 57 BL/6 mice; for Number of Ia+ cells per mm^2 of epidermis, Mean: 4 batches; for Ia+ cells %: relative to PG controls
# Method: as §15, §16, §17, §18, §19, §20, §21, §22
# The EDC (epidermal dendritic cells) carrying the Ia+ marker were identified using an anti-Ia+ monoclonal antibody.
# The epidermal sheets are fixed with acetone and then incubated, at 37° C. for 1 h, in the presence of the anti-Ia+ monoclonal antibody, which has been labeled by the indirect immunoperoxidase method (Kit).
# After having been incubated at 37° C. for 10 minutes with a solution of aminoethylcarbazole, the preparation is washed with PBS.
# as §23
substance,measurement,setting,value
thymopoietin [reference compound],Stimulation % (46-47 KD keratin synthesis),[1]; Concentration 10^-6 M,19%
same,Stimulation % (keratohyalin synthesis),[2]; Concentration 10^-6 M,35%
same,"Keratin/protein mean (keratohyalin synthesis, Table III)",[2]; Concentration 10^-6 M,4.99
"A-Gln-Gly-Gly-Ser-Asn-NH2 (QGGSN; not fully specified (N-terminus, C-terminus)) [ETF No. IX, A not specified; lyophilized in Dextran for the test]",Stimulation % (46-47 KD keratin synthesis),[1]; Concentration 10^-6 M,90%
same,Stimulation % (46-47 KD keratin synthesis),[1]; Concentration 10^-8 M,95%
same,Stimulation % (46-47 KD keratin synthesis),[1]; Concentration 10^-10 M,86%
same,Stimulation % (46-47 KD keratin synthesis),[1]; Concentration 10^-12 M,41%
same,Stimulation % (keratohyalin synthesis),[2]; Concentration 10^-6 M,62%
same,"Keratin/protein mean (keratohyalin synthesis, Table III)",[2]; Concentration 10^-6 M,5.97
same,Stimulation % (keratohyalin synthesis),[2]; Concentration 10^-8 M,83%
same,"Keratin/protein mean (keratohyalin synthesis, Table III)",[2]; Concentration 10^-8 M,6.75
same,Stimulation % (keratohyalin synthesis),[2]; Concentration 10^-10 M,39%
same,"Keratin/protein mean (keratohyalin synthesis, Table III)",[2]; Concentration 10^-10 M,5.13
same,Stimulation % (keratohyalin synthesis),[2]; Concentration 10^-12 M,38%
same,"Keratin/protein mean (keratohyalin synthesis, Table III)",[2]; Concentration 10^-12 M,5.11
"Adipoyl-Ala-Lys-Ser-Gln-Gly-Gly-Ser-Asn-NH2 (AKSQGGSN-NH2; not fully specified (N-terminus)) [ETF-III, A of the tested sample not restated]","Number of Thy 1.2+ cells per mm^2 of epidermis, batch 1",[3]; dose 0.10 Nanog.,168 cells per mm^2
same,"Number of Thy 1.2+ cells per mm^2 of epidermis, batch 2",[3]; dose 0.10 Nanog.,165 cells per mm^2
same,"Number of Thy 1.2+ cells per mm^2 of epidermis, batch 3",[3]; dose 0.10 Nanog.,180 cells per mm^2
same,"Number of Thy 1.2+ cells per mm^2 of epidermis, batch 4",[3]; dose 0.10 Nanog.,176 cells per mm^2
same,"Number of Thy 1.2+ cells per mm^2 of epidermis, Mean",[3]; dose 0.10 Nanog.,172.25 cells per mm^2
same,Thy 1.2+ cells % T,[3]; dose 0.10 Nanog.,95%
same,"Number of Thy 1.2+ cells per mm^2 of epidermis, batch 1",[3]; dose 0.50 Nanog.,190 cells per mm^2
same,"Number of Thy 1.2+ cells per mm^2 of epidermis, batch 2",[3]; dose 0.50 Nanog.,190 cells per mm^2
same,"Number of Thy 1.2+ cells per mm^2 of epidermis, batch 3",[3]; dose 0.50 Nanog.,205 cells per mm^2
same,"Number of Thy 1.2+ cells per mm^2 of epidermis, batch 4",[3]; dose 0.50 Nanog.,200 cells per mm^2
same,"Number of Thy 1.2+ cells per mm^2 of epidermis, Mean",[3]; dose 0.50 Nanog.,196.25 cells per mm^2
same,Thy 1.2+ cells % T,[3]; dose 0.50 Nanog.,122%
same,"Number of Thy 1.2+ cells per mm^2 of epidermis, batch 1",[3]; dose 1.00 Nanog.,200 cells per mm^2
same,"Number of Thy 1.2+ cells per mm^2 of epidermis, batch 2",[3]; dose 1.00 Nanog.,220 cells per mm^2
same,"Number of Thy 1.2+ cells per mm^2 of epidermis, batch 3",[3]; dose 1.00 Nanog.,216 cells per mm^2
same,"Number of Thy 1.2+ cells per mm^2 of epidermis, batch 4",[3]; dose 1.00 Nanog.,210 cells per mm^2
same,"Number of Thy 1.2+ cells per mm^2 of epidermis, Mean",[3]; dose 1.00 Nanog.,211.50 cells per mm^2
same,Thy 1.2+ cells % T,[3]; dose 1.00 Nanog.,140%
same,"Number of Ia+ cells per mm^2 of epidermis, batch 1",Ia+ Langerhans cells; dose 0.10 Nanog.,376 cells per mm^2
same,"Number of Ia+ cells per mm^2 of epidermis, batch 2",Ia+ Langerhans cells; dose 0.10 Nanog.,382 cells per mm^2
same,"Number of Ia+ cells per mm^2 of epidermis, batch 3",Ia+ Langerhans cells; dose 0.10 Nanog.,387 cells per mm^2
same,"Number of Ia+ cells per mm^2 of epidermis, batch 4",Ia+ Langerhans cells; dose 0.10 Nanog.,399 cells per mm^2
same,"Number of Ia+ cells per mm^2 of epidermis, Mean",Ia+ Langerhans cells; dose 0.10 Nanog.,386.00 cells per mm^2
same,Ia+ cells %,Ia+ Langerhans cells; dose 0.10 Nanog.,277%
same,"Number of Ia+ cells per mm^2 of epidermis, batch 1",Ia+ Langerhans cells; dose 0.50 Nanog.,380 cells per mm^2
same,"Number of Ia+ cells per mm^2 of epidermis, batch 2",Ia+ Langerhans cells; dose 0.50 Nanog.,388 cells per mm^2
same,"Number of Ia+ cells per mm^2 of epidermis, batch 3",Ia+ Langerhans cells; dose 0.50 Nanog.,299 cells per mm^2
same,"Number of Ia+ cells per mm^2 of epidermis, batch 4",Ia+ Langerhans cells; dose 0.50 Nanog.,388 cells per mm^2
same,"Number of Ia+ cells per mm^2 of epidermis, Mean",Ia+ Langerhans cells; dose 0.50 Nanog.,363.75 cells per mm^2
same,Ia+ cells %,Ia+ Langerhans cells; dose 0.50 Nanog.,255%
same,"Number of Ia+ cells per mm^2 of epidermis, batch 1",Ia+ Langerhans cells; dose 1.00 Nanog.,305 cells per mm^2
same,"Number of Ia+ cells per mm^2 of epidermis, batch 2",Ia+ Langerhans cells; dose 1.00 Nanog.,400 cells per mm^2
same,"Number of Ia+ cells per mm^2 of epidermis, batch 3",Ia+ Langerhans cells; dose 1.00 Nanog.,398 cells per mm^2
same,"Number of Ia+ cells per mm^2 of epidermis, batch 4",Ia+ Langerhans cells; dose 1.00 Nanog.,410 cells per mm^2
same,"Number of Ia+ cells per mm^2 of epidermis, Mean",Ia+ Langerhans cells; dose 1.00 Nanog.,378.25 cells per mm^2
same,Ia+ cells %,Ia+ Langerhans cells; dose 1.00 Nanog.,269%
